US20250092360A1, “METHODS AND COMPOSITIONS FOR GENERATING SOMATOSTATIN+ INTERNEURONS FROM HUMAN FOREBRAIN NEURAL PROGENITOR CELLS” (Trailhead Biosystems Inc., priority 2023, published 2025)
“Also recorded” adds a separate entry of the source.

Columns and labels:
[1] = system: human pluripotent stem cells; experiment: Factor criticality analysis, stage 1 recipe (dynamic profile analysis); assay type: cell-based; settings: other five stage 1 factors present, FIG. 11; for expression level of FEZF2 when the factor is removed: 2000 with all six factors; for expression level of SIX3 when the factor is removed: 3000 with all six factors; for expression level of OTX2 when the factor is removed: 5500 with all six factors
Source text: To assess the impact of the elimination of each validated factor, dynamic profile analysis was used and compared the expression level of genes of interest in absence of each finalized factor while others are present. […] When Purmorphamine was removed, levels of FEZF2 and SIX3 were decreased to 1000 and below 3000, while levels of OTX2 increased to 6500.

[2] = system: human pluripotent stem cells; experiment: HD-DoE stage 1, first 12-factor experiment: gene expression (qPCR) after 3-day treatment; assay type: cell-based; settings: for impact on expression of OTX2: dynamic profile / model; for factor contribution, expression of SIX3 / factor contribution, expression of FEZF2: positive impact; for factor contribution, expression of SIX3: model optimized for maximal SIX3, 3-day treatment, qPCR; for factor contribution, expression of FEZF2: model optimized for maximum FEZF2 at 3576
Source text: This example utilizes a method of High-Dimensional Design of Experiments (HD-DoE), as previously described in Bukys et al. (2020) […] 23:101346. The method employs computerized design geometries to simultaneously test multiple process inputs and offers mathematical modeling of a deep effector/response space. The method allows for finding combinatorial signaling inputs that control a complex process, such as during cell differentiation. It allows testing of multiple plausible critical process parameters, as such parameters impact output responses, such as gene expression. Because gene expression provides hallmark features of the phenotype of, for example, a human cell, the method can be applied to identify, and understand, which signaling pathways control cell fate. In the current example, the HD-DOE method was applied with the intent to find conditions for induction of […] neural progenitor-expressed genes, directly from the pluripotent stem cell state. To develop the recipe for each stage, the impact of agonists and antagonists of multiple signaling pathways (herein called effectors) on the expression of two sets of 53 pre-selected genes, after a 3-day treatment, has been tested and modeled. These effectors are small molecules or proteins that are commonly used during stepwise differentiation of stem cells to specific fates. Choice of the effectors were based on current literature on neural induction in forebrain region of developing brain and differentiation of stem cells to neural progenitors. To test the effectors, experiments with at least 8 factors were designed that can assess the response of cells to 48 or more different combinations of effectors in a range of concentrations. To analyze the models, we focused on expression of genes involved in development and patterning of the anterior neuroectoderm and forebrain including OTX2 (Hoch et al. (2015) Cell Reports 12:482-494), SIX3 (Lagutin et al. (2003) Genes & Development 17:368-379) and FEZF2 (Zhang et al. (2014) Development 141:4794-[…]). At later stages we focused on dorsoventral patterning of telencephalon and gene expressed in ventral forebrain including NKX2-1 and absence of PAX6 which is a dorsal forebrain marker (Stoykova et al. (2000) J. Neurosci. 20:8042-8050). The impact of each effector on gene expression level is defined by a parameter called factor contribution that is calculated for each effector during the modeling. To identify the recipe for stage 1 of differentiation, 96 different combinations of effectors generated using Design-of-Experiments compression through D-optimality were robotically prepared. The effector combinations were prepared in a basal media and were subsequently added to the cells, which were then allowed to differentiate. Three days later RNA extraction was performed, and gene expression was obtained using quantitative PCR analysis. The data were normalized and modeled using partial least squares regression analysis to the effector design, resulting in the generation of gene-specific models, which after model tuning for maximal Q2 predictive power, provided explanation of the effectors ability to control the expression of individual genes, combinatorically, and individually. Solutions within the tested space could then be explored to address desirability. Optimizing for maximal expression of SIX3 at 3300 and FEZF2 1355 expression values led to robust solutions. This model was derived from testing 12 effectors including AGN193109, LDN193189, CHIR99021, XAV939, IGF2, Purmorphamine, 4-oxo-RA, TTNPB, SR11237, FGF8, PD0325901 and […]. […] The model was also optimized for maximum expression of FEZF2 separately at 3576 expression value to find any additional factors that can boost expression of forebrain genes. […] To find the set of factors that have the potential to optimize all 3 genes in this experiment, a new assessment was done through dynamic profile analysis with focus on maximal expression of OTX2, FEZF2 and SIX3.

[3] = system: forebrain-committed neural stem cells; experiment: Factor criticality analysis, stage 2 recipe; assay type: cell-based, human; settings: for expression level of PAX6 when the factor is removed / expression level of NKX2-2 when the factor is removed / expression level of NKX2-1 when the factor is removed: other three stage 2 factors present; for expression level of PAX6 when the factor is removed: 0 with all four factors; for expression level of NKX2-2 when the factor is removed: 100 with all four factors; for expression level of NKX2-1 when the factor is removed: 5000 with all four factors
Procedure: To assess the impact of the elimination of each validated factor, dynamic profile analysis was used and compared the expression level of genes of interest in absence of each finalized factor while others are present.
In the stage 2 recipe, each of the four finalized factors were removed while the other three factors remained present and expression levels of NKX2-1, PAX6 and NKX2-2 were assessed compared to presence of all four factors. Absence of PD0325901 reduced the levels of NKX2-1 and NKX2-2 while increasing PAX6 from 5000 to 3200, 100 to 0 and 0 to 5000, respectively. […] Removing XAV939 reduced the levels of NKX2-1 from 5000 to 3000, while increasing both PAX6 and NKX2-2 to 10000 and 200, respectively. Another observation was the interaction between XAV939 and Purmorphamine. In the absence of XAV939, the impact of Purmorphamine on NKX2-1 became negative and, as it is shown in interaction plot of FIG. 14, the level of NKX2-1 is higher when both factors are present.

[4] = system: forebrain-committed neural stem cells; experiment: HD-DoE stage 2, 12-factor experiment: NKX2-1 expression; assay type: cell-based, human; settings: model / dynamic profile, in words
In short: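 Forebrain-committed neural stem cells were treated for 3 days after stage 1 in a 12-factor high-dimensional DoE (LDN193189, BMP7, PD0325901, MK2206, A8301, XAV939, CHIR99021, purmorphamine, SANT-1, AGN193109, TTNPB, GSI-XX) to drive ventral forebrain identity. The read-out was NKX2-1 expression. Dynamic profile modelling also targeted minimal PAX6 and NKX2-2.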

[5] = dynamic profile analysis, in words

Q: Which “expression level of FEZF2 when the factor is removed” value (“expression level of FEZF2” for short) [1] does the source give for c1ccc2c(-c3cnn4cc(-c5ccc(N6CCNCC6)cc5)cnc34)ccnc2c1 [LDN193189] here?
A: 1000

Q: What about the “expression level of SIX3 when the factor is removed” value (“expression level of SIX3” below) [1] of the same compound?
A: 0

Q: What about the “expression level of OTX2 when the factor is removed” value (from here on “expression level of OTX2”) [1] of the same compound?
A: 4000

Q: And the “factor contribution, important input for high expression of SIX3” value ([2]; FIG. 2 legend)?
A: 24.9

Q: What about the “impact on expression of OTX2” value ([2]; in words) of the same compound?
A: positive impact

Q: And the “factor contribution, expression of OTX2” value ([2]; positive effector, model optimized for maximum OTX2 at 6348)?
A: 8

Q: What about the “factor contribution, expression of SIX3” value [2] of the same compound?
A: 16

Q: What about the “factor contribution, expression of FEZF2” value [2] of the same compound?
A: 25

Q: What about the “expression level of PAX6 when the factor is removed” value [3] of the same compound?
A: below 0

Q: What about the “expression level of NKX2-2 when the factor is removed” value [3] of the same compound?
A: below 0

Q: What about the “expression level of NKX2-1 when the factor is removed” value [3] of the same compound?
A: did not significantly change

Q: What about the “impact on expression of NKX2-1” value [4] of the same compound?
A: increase

Q: For O=C(NOC[C@H](O)CO)c1ccc(F)c(F)c1Nc1ccc(I)cc1F [PD0325901], which “expression level of FEZF2” value [1] is on record?
A: drop

Q: And the “expression level of SIX3” value [1]?
A: did not have a significant impact

Q: What about the “expression level of OTX2” value [1] of the same compound?
A: did not have a significant impact

Q: What about the “impact on expression of OTX2” value ([2]; in words) of the same compound?
A: positive impact

Q: What about the “factor contribution, expression of FEZF2” value [2] of the same compound?
A: 10

Q: What about the “expression level of PAX6 when the factor is removed” value [3] of the same compound?
A: 5000

Q: What about the “expression level of NKX2-2 when the factor is removed” value [3] of the same compound?
A: 0

Q: And the “expression level of NKX2-1 when the factor is removed” value [3]?
A: 3200

Q: And the “impact on expression of NKX2-1” value [4]?
A: increase; also recorded: Positive impact

Q: Which “expression level of FEZF2” value [1] does the source give for c1ccc2c(Oc3nc(Nc4ccc(N5CCOCC5)cc4)c4ncn(C5CCCCC5)c4n3)cccc2c1 [Purmorphamine] here?
A: 1000

Q: What about the “expression level of SIX3” value [1] of the same compound?
A: below 3000

Q: What about the “expression level of OTX2” value [1] of the same compound?
A: 6500

Q: And the “impact on expression of OTX2” value ([2]; in words)?
A: negative effect

Q: And the “impact on expression of FEZF2” value [2, 5]?
A: positive impact

Q: And the “impact on expression of SIX3” value [2, 5]?
A: positive impact

Q: What about the “factor contribution, expression of SIX3” value [2] of the same compound?
A: 5

Q: What about the “factor contribution, expression of FEZF2” value [2] of the same compound?
A: 7

Q: What about the “impact on NKX2-1 in the absence of XAV939” value ([3]; interaction plot FIG. 14) of the same compound?
A: negative

Q: What about the “impact on expression of NKX2-1” value [4] of the same compound?
A: increase
